Laboratory results from patent US20230141988A1, “PHARMACEUTICAL COMPOSITION FOR USE IN THE TREATMENT OF NEUROLOGICAL DISEASES” (Aclipse One Inc., priority 2020, published 2023).
“And” between values parts separate entries of the source, which are not always exact repeats. Equal values may be shown once. Read-outs that look alike come from different tables or passages of the source.

Legend:
in vivo [1] = settings: male, SD, rat; for AUC(0-inf): AUCInf; for AUC(0-t): AUClast; for MRT inf: MRTInf
Procedure: (§1) The vehicle for the IV, subcutaneous, PO and IN formulation contained “0.1% sodium metabisulfite solution”.
(§2) Male SD rats were purchased from Si Bei Fu Laboratory Animal Technology Co. Ltd (Beijing, China). The animals were about 8 weeks old with body weights of 200-300 g on the dosing date. The animals were housed in a 12-hour light/12-hour dark cycle environment and had free access to food and water. All animals were fasted overnight and fed after 4 hours collection.
(§3) Plasma samples were collected from jugular vein at each time point after IV, subcutaneous, PO and IN administrations.
(§4) About 200 μL of blood samples were collected from each animal via jugular vein. These blood samples were placed into the tubes containing K2EDTA. And centrifugation at 3000 g for 10 minutes in a 4° C. centrifuge. The completion time from collection was less than 30 min. The stabilizing agent of ascorbic acid at 200 mg/mL was added in a proportion of 10% in plasma. The plasma samples were stored in a freezer at −75±15° C. prior to analysis. The completion time from collection was less than 60 min.
(§5) Calibration standard working solutions were prepared at concentrations of 2, 5, 10, 20, 50, 100, 500, 1000, 5000 and 10000 ng/mL by serial dilution of the standard stock solution in 50% acetonitrile in water. Quality control working solutions at concentrations of 5, 10, 20, 500 and 8000 ng/mL were prepared by serial dilution of the standard stock solution in 50% acetonitrile in water. These QC samples were prepared on the day of analysis in the same way as calibration standards.
(§6) For plasma samples, 2 μL of each calibration standard working solution (2, 5, 10, 20, 50, 100, 500, 1000, 5000 and 10000 ng/mL) was added to 20 μL of the blank SD rat plasma (with 10% 200 mg/mL ascorbic acid) to achieve calibration standards of 0.2-1000 ng/mL (0.2, 0.5, 1, 2, 5, 10, 50, 100, 500, 1000 ng/mL) in a total volume of 22 μL. Quality Control (QC) samples at 0.5 ng/mL (low-1), 1 ng/mL (low-2) and 2 ng/mL (low-3), 50 ng/mL (mid), 800 ng/mL (high) for plasma were prepared independently for those used for the calibration curves. These QC samples were prepared on the day of analysis in the same way as calibration standards. The total volumes of 22 μL of standards, 22 μL of QC samples and 22 μL of unknown samples (20 μL of unknown plasma (with 10% 200 mg/mL ascorbic acid) with 2 μL 50% acetonitrile) were added to 200 μL of acetonitrile containing IS to precipitate proteins. Then the samples were vortexed for 30 sec. After centrifugation at 4° C., 4700 rpm for 30 min, and supernatant was diluted 2 times with water, 10 μL of the diluted supernatant was injected into the LC-MS/MS system for quantitative analysis.
All the samples were processed on ice.
(§7) The LC-MS/MS system consisted of two Shimadzu LC-30AD pumps, a DGU-20A5R degasser, a Rack changer II and LCMS-8060 LC/MS/MS instrument mass spectrometer.
(§8) OD-3R Particle size 3 μm 4.6 mm×150 mm column at room temperature. The mobile phase was composed of A: Water (5 mM Ammonium Acetate); B: Ethanol (5 mM Ammonium Acetate). The flow rate was 0.5 mL/min. The injection volume was 10 μL.
(§9) A multiple reaction monitoring (MRM) method was selected for quantitative analysis. […] The instrument parameters were set as follows: ion spray voltage: 8060; heating gas flow: 10 L/min; interface temperature: 250° C.; DL temperature: 220° C.; heat block temperature: 400° C.; drying gas flow: 10 L/min.
(§10) Data acquisition was performed by Lab Solutions version 5.89 Software (Shimadzu). All concentration data was reported with 3 significant figures. Data statistics were performed using Excel 2010 software.
(§11) The linear trapezoidal algorithm was used for AUC calculation.

[2] = subcutaneous […], plasma, mean of 3 mice
Procedure: 9 male C57BL/6J mice following administration of a single subcutaneous dose of 4.40 mg/kg. The vehicle for the subcutaneous formulation contained “0.1% sodium metabisulfite solution”.
Male C57BL/6J mice were purchased from Si Bei Fu Laboratory Animal Technology Co. Ltd (Beijing, China). The animals were about 8 weeks old with body weights of 20-30 g on the dosing date. The animals were housed in a 12-hour light/12-hour dark cycle environment and had free access to food and water. All animals were fasted overnight and fed after 4 hours collection.
For group 1, plasma samples were collected from dorsal metatarsal vein at each time point after subcutaneous administrations.
For plasma samples, about 30 μL or 300 μL of blood samples were collected from each animal via dorsal metatarsal vein or heart. These blood samples were placed into the tubes containing K2EDTA. And centrifugation at 3000 g for 10 minutes in a 4° C. centrifuge. The completion time from collection was less than 30 min. The stabilizing agent of ascorbic acid at 200 mg/mL was added in a proportion of 10% in plasma. The plasma samples were stored in a freezer at −75±15° C. prior to analysis. The completion time from collection was less than 60 min.
For brain and CSF samples, The animals were fully exsanguinated with a rising concentration of CO2 gas prior to CSF and brain collection.
For CSF collection, incision was made by scissors on the neck of the rats to expose the foramen magnum. A syringe fitted with a venoclysis needle was used to sample the CSF, the tip of the needle was inserted into the membrane of foramen magnum about 1-2 mm, and a negative pressure was applied by pulling a stopcock a small length of the syringe to extract CSF fluids into a tube. The stopcock was further actuated to until a sufficient amount of CSF was collected. There should be no blood in the CSF fluid. A stabilizing agent of ascorbic acid at 200 mg/mL was added in a proportion of 10% in CSF.
For brain collection. Brain samples were collected at an adopted time point, and washed 3 times with cold saline, then dried with clean gauze and put into the weighed tube, quick frozen in an ice box and kept at −75±15° C. All brain samples were weighted and homogenized with phosphate buffered saline (PBS) by brain weight (g) to PBS volume (mL) ratio 1:3 before analysis. The stabilizing agent of ascorbic acid at 200 mg/mL was added in a proportion of 10% in grain homogenate. The actual concentration was the detected value multiplied by the dilution factor. Brain samples were collected at designed time point, quickly homogenized and kept at −75±15° C.
Calibration standard working solutions were prepared at concentrations of 2, 5, 10, 20, 50, 100, 500, 1000, 5000 and 10000 ng/mL by serial dilution of the standard stock solution in 50% acetonitrile in water. Quality control working solutions at concentrations of 5, 10, 500 and 8000 ng/mL were prepared by serial dilution of the standard stock solution in 50% acetonitrile in water. These QC samples were prepared on the day of analysis in the same way as calibration standards.
For plasma and brain samples, 3 μL of each calibration standard working solution (2, 5, 10, 20, 50, 100, 500, 1000, 5000 and 10000 ng/mL) was added to 30 μL of the blank C57BL/6J mouse plasma or brain homogenate (with 10% 200 mg/mL ascorbic acid) to achieve calibration standards of 0.2-1000 ng/mL (0.2, 0.5, 1, 2, 5, 10, 50, 100, 500, 1000 ng/mL) in a total volume of 33 μL. Quality Control (QC) samples at 0.5 ng/mL (low-1), 1 ng/mL (low-2), 50 ng/mL (mid), 800 ng/mL (high) for plasma were prepared independently for those used for the calibration curves. These QC samples were prepared on the day of analysis in the same way as calibration standards.

[3] = Plasma and CSF pharmacokinetic study, single sublingual, oral or subcutaneous dose, male Beagle dogs; type: in vivo
Procedure: Animals were fed twice daily. […] Food was withheld until 4-hour post-dose.
All blood samples were collected from a peripheral vessel.
For CSF collection, a polypropylene tube was first weighted to accuracy of 0.1 mg (weight #1). CSF was collected in the tube and weighted again (weight #2). Total CSF weight was calculated by subtracting weight #1 from weight #2. Samples were kept on ice and protected from sunlight. Stabilizing agent (ascorbic acid 200 mg/mL) was added within 60 minutes in a proportion of 10% in CSF. Frozen CSF samples on dry ice were stored at −60° C. or lower until bioanalysis.
All CSF samples were added with the equal volume of plasma. […] 30 μL supernatant was then mixed with 30 μL water, vortex-mixed well and centrifuged at 4° C.
Dilution procedure description: Dilution factor as 5—An aliquot of 2 μL sample was added with 8 μL blank matrix.
The flow rate was 0.6 mL/min. The injection volume was 3 μL. The following gradient was implemented: […]

[4] = Pharmacokinetic study, single IV, subcutaneous, PO and IN dose, male SD rats (plasma); settings: rat, in vivo
Procedure: as §1, §2, §3, §4, §5, §6
All the samples were processed on ice.
as §7, §8, §9, §10, §11

[5] = Solubility in aqueous media / aqueous buffer solutions; type: physicochemical; settings: free base, aqueous media at various pH values
in vivo [6] = settings: male, SD, rat
Procedure: The vehicle for the IN and PO formulation contained “0.1% sodium metabisulfite solution”.
The animals were about 8 weeks old with body weights of 200-300 g on the dosing date. The animals were housed in a 12-hour light/12-hour dark cycle environment and had free access to food and water. All animals were fasted overnight and fed after 4 hours collection.
For group 2, plasma, CSF and brain samples were collected at 0.5 and 1 h post dose.
For Group 2 (PO dose, 10.56 mg/kg), blood, CSF and brain samples were collected from 3 mice at two time point: 0.5 h and 1 h post dose.
For plasma samples, about 200 μL of blood samples were collected from each animal via jugular vein. These blood samples were placed into the tubes containing K2EDTA, and centrifuged at 3000 g for 10 minutes in a 4° C. centrifuge. The completion time from collection was less than 30 min. The stabilizing agent of ascorbic acid at 200 mg/mL was added in a proportion of 10% in plasma. The plasma samples were stored in a freezer at −75±15° C. prior to analysis. The completion time from collection was less than 60 min.
For brain and CSF samples, The animals were fully exsanguinated with a rising concentration of CO2 gas prior to CSF and brain collection. […]
For brain collection. […] The actual concentration was the detected value multiplied by the dilution factor. […]

[7] = 0.88 mg/kg, plasma concentration
[8] = iv, 0.88 mg/kg, plasma concentration
[9] = iv, 0.88 mg/kg, plasma concentration, Mean
[10] = male Beagle dogs (fasted), single SL 5 mg/kg, plasma, individual dogs
[11] = male, beagle, dog, in vivo, 5 mg/kg, CSF concentration
[12] = male, beagle, dog, in vivo, 5 mg/kg, plasma concentration
[13] = male, beagle, dog, in vivo, po, 10 mg/kg, CSF concentration
[14] = male, beagle, dog, in vivo, po, 10 mg/kg, plasma concentration
[15] = male, beagle, dog, in vivo, sc, 1 mg/kg, CSF concentration
[16] = male, beagle, dog, in vivo, sc, 1 mg/kg, plasma concentration

CN1CCc2cccc3c2[C@@H]1Cc1ccc(O)c(O)c1-3
concentration at 0.5 h (in vivo [1]): 31 ng/mL
concentration at 1 h (in vivo [1]): 8.96 ng/mL
concentration at 2 h (in vivo [1]): 6.87 ng/mL
concentration at 8 h (in vivo [1]): 0.651 ng/mL
concentration at […] (in vivo [1]): 114 ng/mL
concentration at […] (in vivo [1]; 0.88 mg/kg): 119 ng/mL
concentration at 2 min (in vivo [1]; [7]): 42.7 ng/mL
concentration at 0.5 h (in vivo [1]; [7]): 40.5 ng/mL
concentration at 1 h (in vivo [1]; [7]): 5.76 ng/mL
concentration at 2 h (in vivo [1]; [7]): 1.52 ng/mL
concentration at 8 h (in vivo [1]; [7]): 0.877 ng/mL
concentration at […] (in vivo [1]; [7]): 162 ng/mL and 151 ng/mL and 107 ng/mL
AUC(0-inf) (in vivo [1]; iv, 0.88 mg/kg): 86.6 ng·h/mL
AUC(0-t) (in vivo [1]; iv, 0.88 mg/kg): 83.2 ng·h/mL
C0 (in vivo [1]; iv, 0.88 mg/kg, C0): 527 ng/mL
clearance (in vivo [1]; iv, 0.88 mg/kg, Cl): 169 mL/min/kg
MRT inf (in vivo [1]; iv, 0.88 mg/kg): 1.26 h
Vd (in vivo [1]; iv, 0.88 mg/kg, Vss): 12.8 L/kg
concentration at 2 min (in vivo [1]; [8]): 353 ng/mL
concentration at 0.5 h (in vivo [1]; [8]): 17.8 ng/mL
concentration at 1 h (in vivo [1]; [8]): 7.6 ng/mL
concentration at 2 h (in vivo [1]; [8]): 4.32 ng/mL
concentration at 8 h (in vivo [1]; [8]): 0.88 ng/mL
concentration at […] (in vivo [1]; [8]): 104 ng/mL
concentration at 2 min (in vivo [1]; [9]): 339 ng/mL
concentration at 0.5 h (in vivo [1]; [9]): 16.4 ng/mL
concentration at 1 h (in vivo [1]; [9]): 6.37 ng/mL
concentration at 2 h (in vivo [1]; [9]): 3.67 ng/mL
concentration at 8 h (in vivo [1]; [9]): 0.777 ng/mL
AUC(0-inf) (in vivo [1]; sc, 0.88 mg/kg): 71.2 ng·h/mL
AUC(0-t) (in vivo [1]; sc, 0.88 mg/kg): 70.2 ng·h/mL
Cmax (in vivo [1]; sc, 0.88 mg/kg, Cmax): 141 ng/mL
MRT inf (in vivo [1]; sc, 0.88 mg/kg): 0.873 h
AUClast/D [2]: 73.8 mg·h/mL
MRT inf ([3]; dog, in vivo, male Beagle dogs (fasted), single PO 10 mg/kg, plasma, individual dogs): 8.44 h
MRT inf ([3]; dog, in vivo, male Beagle dogs (fasted), single SL 5 mg/kg, CSF, mean): 3.18 h
Kp ([3]; dog, in vivo, male Beagle dogs (fasted), single SL 5 mg/kg, individual dogs, read-out: AUC Ratio (AUClast ratio of CSF to total plasma)): 0.337
AUC(0-inf) ([3]; dog, in vivo, male Beagle dogs (fasted), single SL 5 mg/kg, plasma, mean, read-out: AUCinf): 162 ng·h/mL
AUMCExtra ([3]; male Beagle dogs (fasted), single PO 10 mg/kg, plasma, individual dogs, 10 mg/kg): 31.9%
AUMCExtra ([3]; male Beagle dogs (fasted), single SL 5 mg/kg, CSF, individual dogs): 5.44% and 18.5%
AUCExtra [3, 10]: 7.39%
AUMCExtra [3, 10]: 10.7%
AUC(0-inf) ([3]; male, beagle, dog, CSF, po, 10 mg/kg, male Beagle dogs (fasted), single PO 10 mg/kg, CSF, individual dogs, read-out: AUCinf): 181 ng·h/mL
Kp ([3]; male, beagle, dog, in vivo, 5 mg/kg, AUClast ratio of CSF to total plasma): 1.08 ± 0.964
concentration at 2 h [3, 11]: 76.2 ng/mL
concentration at […] [3, 11]: 289 ng/mL
AUC(0-t) ([3]; male, beagle, dog, in vivo, 5 mg/kg, male Beagle dogs (fasted), single SL 5 mg/kg, CSF, individual dogs): 122 ng·h/mL
AUC(0-t) ([3]; male, beagle, dog, in vivo, 5 mg/kg, male Beagle dogs (fasted), single SL 5 mg/kg, CSF, mean): 162 ng·h/mL
Cmax ([3]; male, beagle, dog, in vivo, 5 mg/kg, male Beagle dogs (fasted), single SL 5 mg/kg, plasma, individual dogs, read-out: Cmax): 162 ng/mL
Cmax ([3]; male, beagle, dog, in vivo, 5 mg/kg, maximum CSF concentration (Cmax)): 126 ± 144 ng/mL
Cmax ([3]; male, beagle, dog, in vivo, 5 mg/kg, maximum plasma concentration (Cmax)): 143 ± 24 ng/mL
concentration at 0.5 h [3, 12]: 162 ng/mL
concentration at 1 h [3, 12]: 116 ng/mL
concentration at 2 h [3, 12]: 10.8 ng/mL
concentration at 4 h [3, 12]: 3.39 ng/mL
concentration at 8 h [3, 12]: 2.74 ng/mL
concentration at […] [3, 12]: 151 ng/mL
concentration at 0.5 h ([3]; male, beagle, dog, in vivo, 5 mg/kg, single SL 5 mg/kg, 0.500 h, individual animal, read-out: CSF concentration): 6.23 ng/mL
concentration at 8 h ([3]; male, beagle, dog, in vivo, 5 mg/kg, single SL 5 mg/kg, 8.00 h, individual animal, read-out: CSF concentration): 1.16 ng/mL
concentration at 24 h ([3]; male, beagle, dog, in vivo, 5 mg/kg, single SL 5 mg/kg, 24.0 h, individual animal, read-out: plasma concentration): 1.49 ng/mL
plasma concentration ([3]; male, beagle, dog, in vivo, po, 10 mg/kg, 1 h): 63.3 ng/mL
Kp ([3]; male, beagle, dog, in vivo, po, 10 mg/kg, AUC Ratio (AUClast ratio of CSF to total plasma)): 0.33
Kp ([3]; male, beagle, dog, in vivo, po, 10 mg/kg, AUClast ratio of CSF to total plasma): 0.27 ± 0.0663
concentration at 0.5 h [3, 13]: 48.5 ng/mL
concentration at 4 h [3, 13]: 8.15 ng/mL
concentration at […] [3, 13]: 24.7 ng/mL
Tmax ([3]; male, beagle, dog, in vivo, po, 10 mg/kg, Tmax): 0.5 h
Cmax ([3]; male, beagle, dog, in vivo, po, 10 mg/kg, male Beagle dogs (fasted), single PO 10 mg/kg, plasma, individual dogs, read-out: Cmax): 84.8 ng/mL
concentration at 0.5 h [3, 14]: 78 ng/mL
concentration at 1 h [3, 14]: 42.2 ng/mL
concentration at 2 h [3, 14]: 22.9 ng/mL
concentration at 4 h [3, 14]: 15.6 ng/mL
concentration at 8 h [3, 14]: 9.36 ng/mL
concentration at 24 h [3, 14]: 4.5 ng/mL
concentration at […] [3, 14]: 9.2 ng/mL
concentration at 0.5 h ([3]; male, beagle, dog, in vivo, po, 10 mg/kg, single PO 10 mg/kg, 0.500 h, individual animal, read-out: CSF concentration): 17.8 ng/mL
concentration at 4 h ([3]; male, beagle, dog, in vivo, po, 10 mg/kg, single PO 10 mg/kg, 4.00 h, individual animal, read-out: CSF concentration): 12.4 ng/mL
plasma concentration ([3]; male, beagle, dog, in vivo, sc, 1 mg/kg, 1 h): 20.7 ng/mL
plasma concentration ([3]; male, beagle, dog, in vivo, sc, 1 mg/kg, 2 h): 2.17 ng/mL
Kp ([3]; male, beagle, dog, in vivo, sc, 1 mg/kg, AUC Ratio): 0.806
AUC(0-inf) ([3]; male, beagle, dog, in vivo, sc, 1 mg/kg, AUCinf): 88.4 ± 23.8 ng·h/mL
Kp ([3]; male, beagle, dog, in vivo, sc, 1 mg/kg, AUClast ratio of CSF to total plasma): 0.964 ± 0.456
concentration at 0.033 h [3, 15]: 1.73 ng/mL
concentration at 0.5 h [3, 15]: 15.6 ng/mL
concentration at 2 h [3, 15]: 6.55 ng/mL
concentration at 8 h [3, 15]: 10.8 ng/mL
AUC(0-t) ([3]; male, beagle, dog, in vivo, sc, 1 mg/kg, CSF, single SC 1 mg/kg, individual animal): 119 ng·h/mL
Cmax ([3]; male, beagle, dog, in vivo, sc, 1 mg/kg, plasma Cmax): 110 ± 19.4 ng/mL
concentration at 0.5 h [3, 16]: 76.6 ng/mL
concentration at 1 h [3, 16]: 27.9 ng/mL
concentration at 2 h [3, 16]: 3.58 ng/mL
concentration at 4 h [3, 16]: 1.11 ng/mL
concentration at 24 h [3, 16]: 1.04 ng/mL
concentration at […] [3, 16]: 89.2 ng/mL
Cmax ([3]; male, beagle, dog, in vivo, sc, 1 mg/kg, plasma, single SC 1 mg/kg, individual animal, read-out: Cmax): 113 ng/mL
concentration at 0.033 h ([3]; male, beagle, dog, in vivo, sc, 1 mg/kg, single SC 1 mg/kg, 119 s, individual animal, read-out: CSF concentration): 22.6 ng/mL
concentration at 0.033 h ([3]; male, beagle, dog, in vivo, sc, 1 mg/kg, single SC 1 mg/kg, 119 s, mean, read-out: CSF concentration): 12.2 ng/mL
concentration at 0.5 h ([3]; male, beagle, dog, in vivo, sc, 1 mg/kg, single SC 1 mg/kg, 0.500 h, individual animal, read-out: CSF concentration): 17.8 ng/mL
concentration at 1 h ([3]; male, beagle, dog, in vivo, sc, 1 mg/kg, single SC 1 mg/kg, 1.00 h, individual animal, read-out: plasma concentration): 11.9 ng/mL
concentration at 1 h ([3]; male, beagle, dog, in vivo, sc, 1 mg/kg, single SC 1 mg/kg, 1.00 h, mean, read-out: CSF concentration): 11.6 ng/mL
concentration at 2 h ([3]; male, beagle, dog, in vivo, sc, 1 mg/kg, single SC 1 mg/kg, 2.00 h, individual animal, read-out: CSF concentration): 12.8 ng/mL
concentration at 4 h ([3]; male, beagle, dog, in vivo, sc, 1 mg/kg, single SC 1 mg/kg, 4.00 h, individual animal, read-out: CSF concentration): 10.2 ng/mL
concentration at 8 h ([3]; male, beagle, dog, in vivo, sc, 1 mg/kg, single SC 1 mg/kg, 8.00 h, individual animal, read-out: CSF concentration): 4.37 ng/mL
Kp ([3]; male, beagle, dog, in vivo, AUClast ratio of CSF to total plasma, single SC 1 mg/kg, individual animal, read-out: AUC Ratio): 1.48
AUC(0-t) ([3]; male, beagle, dog, plasma, 5 mg/kg, male Beagle dogs (fasted), single SL 5 mg/kg, individual dogs): 165 ng·h/mL
AUC(0-inf) ([3]; male, beagle, dog, plasma, 5 mg/kg, male Beagle dogs (fasted), single SL 5 mg/kg, plasma, individual dogs, read-out: AUCinf): 178 ng·h/mL
AUC(0-inf) ([3]; male, beagle, dog, plasma, sc, 1 mg/kg, plasma, single SC 1 mg/kg, individual animal, read-out: AUCinf): 115 ng·h/mL
Cl ([4]; iv, 0.88 mg/kg): 209 mL/min/kg
AUClast/D ([4]; po, […]): 7.39 mg·h/mL
AUClast/D ([4]; sc, 0.88 mg/kg): 77.3 mg·h/mL
solubility [5]: low solubilities
Kp at 0.5 h (in vivo [6]): 0.233
concentration at 0.5 h (in vivo [6]): 299 ng/g
